Each structure is given as a SMILES string.

Experiment [1] has as its system human follicular dermal papilla cells (HFDPCs). Description: MTT assay, stimulation of proliferation of human follicular dermal papilla cells. The class given is cell-based. Conditions: sphinganine 0.3 μg/ml; creatine 10 μg/ml; caffeine 10 μg/ml; 0.1% (v/v) ethanol; incubation 24 hours. (In general: Formazan colour is commonly taken as a measure of viable cells.)
Method: The cells were sown in a cell density of about 6300 cells/cm^2 in a T75 bottle with follicle dermal papilla cell growth medium (for short: growth medium) and then incubated at 37° C., 5% CO2. After 1 day, media exchange was carried out. After a further 3 days, the medium was removed, the cells were washed with PBS (phosphate buffered saline) (without Mg^2+ and Ca^2+), detached by accutase treatment; the cell count is determined and then the cells are sown in a concentration of about 5500 cells/cm^2 in new T75 bottles in growth medium and further cultivated under identical conditions as described above. After 1 and 3 days, media exchange was carried out. After 1 further day, the medium was removed, the cells were washed in PBS (without Mg^2+ and Ca^2+), detached by accutase treatment and then sown in a concentration of about 10 000 cells/cm^2 into the cavities of 6-well cell culture plates with 2.5 ml of growth medium in each case. After 1 day, media exchange was carried out, and the test substances—diluted in fresh medium—were applied. […] All cultivations were carried out in the presence of 0.1% (v/v) ethanol and a corresponding vehicle control was performed at the same time. After incubation for 24 hours, an MTT assay was carried out. The activity in the MTT test indicates the activity of the mitochondrial dehydrogenase and is a marker for the cell vitality and the proliferation capacity. Firstly, a 10 mg/ml stock solution of the MTT reagent (Thiazolyl Blue Tetrazolium Bromide, Sigma Aldrich M5655) in PBS was prepared. The stock solution was then diluted with growth medium to an end concentration of 1 mg/ml MTT reagent. The cells were washed with PBS (without Mg^2+ and Ca^2+) and incubated with 1 ml of growth medium with MTT reagent for 3 h at 37° C. […] The absorption of the extracts was determined by spectrophotometry at a wavelength of 550 nm. The optical density of the extracts from the cells treated only with the vehicle is regarded as the reference (100%), all of the other measured values are quantified relative to the reference sample.
Experiment [2] concerns ex vivo hair follicles. Conditions: ex vivo hair follicles kept in culture; EP0790053; cited from earlier work.
Experiment [3] relates to in vitro cultivated keratinocytes. The settings on record: EP0790053; cited from earlier work.

On to `Cn1c(=O)c2c(ncn2C)n(C)c1=O` [caffeine], for which the “cell proliferation (MTT, optical density at 550 nm relative to vehicle control = 100%)” value in experiment [1] is reported as 102.5%. Regarding `CN(CC(=O)O)C(=N)N` [creatine], in experiment [1], the “cell proliferation (MTT, optical density at 550 nm relative to vehicle control = 100%)” value is given as 104.0%. Take `CCCCCCCCCCCCCCC[C@@H](O)[C@@H](N)CO` [sphinganine]: the “cell proliferation (MTT, optical density at 550 nm relative to vehicle control = 100%)” value in experiment [1] was found to be 103.9%. The “lifespan of the hair follicles” value in experiment [2] is recorded as “increases the lifespan of the hair follicles”. Besides, the “effect on growth of keratinocytes” value in experiment [3] was “growth-promoting effect”.

The record behind these values is patent US9913789B2, “Formulations containing sphinganine” (Evonik Degussa GmbH, priority 2013, dated 2018).
